In patent publication US7625917B2, “Thiolesters and uses thereof” (priority 1998, dated 2009):

Key:
[1] = system: fusion of the HL2/3 and MAGI-CCR-5 cells; test: viral fusion assay (HL2/3 and MAGI-CCR-5 co-culture); type: cell-based
Method: Determination of the effect of the test compounds on viral fusion were carried out as follows. Briefly, HL2/3 cells stably expressing HIV-1 Tat and cell surface gp120 and MAGI-CCR-5 cells stably expressing CD4 and CCR5 on their cell surface, containing a β-galactosidase reporter gene under the control of the HIV-1 LTR were pretreated with test compound for 1 h at 37° C. After incubation, the cells were mixed in […] (2×10^5 MAGI-CCR-5 to 8×10^5 HL2/3 cells) and co-cultured for 18 h at 37° C.; cultures were fixed and stained with X-gal solution for β-galactosidase activity. Blue cells represented the Tat transactivation of the HV-1 LTR upon fusion of the HL2/3 and MAGI-CCR-5 cells via the CD4/CCR5 co-receptor gp120 interaction.

Pr55gag precursor = molecular target: T1, Pr55gag precursor (Human immunodeficiency virus type 1 group M subtype B, UniProt P03347); test: Gag precursor cross-linking and processing in U1 cells (Western blotting); type: cell-based, HIV-1; settings: TNFα-induced U1 cells
T1 construct: endogenous in cells; host or cells: U1 cells (latently HIV-1 infected), induced with TNFα
Method: Thiolester compounds were also tested for their ability to. inhibit HIV-1 replication in TNFα-induced U1 and ACH-2 cells. U1 cells were induced with 5 ng/ml of TNFα in the presence of various concentrations of the thiolesters 44, 45 or 47. Forty-eight hours later the cultures were characterized for virus p24 antigen production and cell viability. […] Compound 44 killed 60% of the cells at 200 μM. […] Precursor processing evaluation performed as described by Turpin (1997) Antiviral Chem. Chemother. 8:60-69. Thus, thiolester PATEs initiate intracellular disulfide cross-linking of precursor polyproteins during late phase virus assembly and mediate a direct virucidal effect via an attack on the mature NCp7 retroviral zinc fingers in the cell-free virus.
Virion cross linking was performed as described by Rice (1995) Science 270:1194-1197 and Turpin (1997) Antiviral Chem. Chemother. 8:60-67. Briefly, highly purified HIV-1MN (11.8 μg total protein) was incubated for 2 hour with concentrations of compound. Virions were concentrated and residual compound was removed by centrifugation (18,000×g, 1 h, 4° C.). The viral pellet was solubilized in 0.5 M Tris-HCl, (pH 6.8), 50% glycerol, 8% SDS and 0.4% bromophenol blue and proteins resolved by Western blotting. Western blotting to detect the expression of HIV-1 proteins in U1 cells or virus pellets for virion cross-linking experiments was carried out as described by Turpin (1996) J. Virol. 70:6180-6189. Briefly, 50 μg of total cellular protein for U1 experiments or the. total virion pellet (11.8 μg total viral protein) for NCp7 cross linking studies was resolved on 4 to 20% polyacrylamide gels in SDS with Tris-Glycine (Novex, San Diego Calif.). Samples for reduced gels were boiled for 5 min in the presence of 5% β-ME prior to loading. Resolved proteins were electroblotted on to polyvinylidene difluoride (PVDF) membranes, and HIV-1 specific proteins were detected using a mixture of goat anti-HIV-1 NCp7 and p24 or anti-NCp7 for virion proteins alone (a kind gift of L. E. Henderson, AIDS Vaccine Program NCI-FCRDC, Frederick, Md.). […]

Sp1 = molecular target: T2, Sp1 (Homo sapiens, UniProt P08047); test: Sp1 super gel shift EMSA (K562 cell nuclear extracts); type: biochemical; settings: specificity for CCHC vs CCHH zinc finger
T2 construct: treatment of K562 cell nuclear extracts with the compounds; host or cells: K562 cell nuclear extracts
T2 sequence (P08047 whole entry): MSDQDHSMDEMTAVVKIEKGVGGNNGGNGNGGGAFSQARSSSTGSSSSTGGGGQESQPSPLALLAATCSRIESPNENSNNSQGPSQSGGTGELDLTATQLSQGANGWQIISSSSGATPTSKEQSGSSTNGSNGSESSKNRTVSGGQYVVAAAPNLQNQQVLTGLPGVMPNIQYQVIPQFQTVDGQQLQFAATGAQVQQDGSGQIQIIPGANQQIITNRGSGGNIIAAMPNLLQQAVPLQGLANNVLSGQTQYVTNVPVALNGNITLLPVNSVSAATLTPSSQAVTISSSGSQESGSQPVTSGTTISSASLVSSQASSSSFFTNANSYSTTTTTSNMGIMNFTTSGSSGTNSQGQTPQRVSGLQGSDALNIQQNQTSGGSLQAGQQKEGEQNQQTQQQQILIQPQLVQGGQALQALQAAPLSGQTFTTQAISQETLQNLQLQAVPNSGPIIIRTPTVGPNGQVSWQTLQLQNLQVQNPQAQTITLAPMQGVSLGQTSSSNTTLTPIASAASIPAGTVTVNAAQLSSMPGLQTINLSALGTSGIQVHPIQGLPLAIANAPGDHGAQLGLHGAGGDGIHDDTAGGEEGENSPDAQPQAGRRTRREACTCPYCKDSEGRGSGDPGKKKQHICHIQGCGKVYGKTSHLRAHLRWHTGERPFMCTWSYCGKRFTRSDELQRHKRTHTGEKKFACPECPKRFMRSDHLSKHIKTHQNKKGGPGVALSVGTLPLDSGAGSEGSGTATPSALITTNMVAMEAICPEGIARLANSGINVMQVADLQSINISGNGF
Method: To determine if compound 44, 45 or 47 binding activity was specific for CCHC zinc fingers, a super gel shift EMSA after treatment of K562 cell nuclear extracts with the compounds was performed. This was followed by super shifting with Sp1-specific antibody. Sp1 was chosen because it is a cellular transcription factor that contains three copies of a classical type CCHH zinc finger motif that are required for Sp1 binding to its DNA target. […] Super gel shifting to determine the specificity of zinc finger reactive compounds was carried out using an Sp1 consensus oligomer (Stratagene, La Jolla, Calif.), K562 cell nuclear extracts, and antibodies for Sp1 (Sp1[PEP2]-G) (extracts and Sp1 Abs from Santa Cruz Biotechnology, Inc., Santa Cruz, Calif.). The binding reactions of oligonucleotides with K562 nuclear extract, as well as electrophoretic conditions were carried out as described in the Gelshift Buffer Kit, Stratagene , La Jolla, Calif.

HIV-1NL4-3 = test: Virucidal (viral inactivation) assay on MAGI-CCR-5 cells; type: cell-based
Method: The cell-based p24 attachment assay was performed as described in Rice (1995) Science 270:1194-1197. Viral inactivation assays were carried out as described in Rice (1995) Science 270:1194-1197, and Turpin (1997) supra, with minor modifications. Briefly, MAGI-CCR-5 cells were plated (4×10^4 cells per well) in flat bottomed 2-cm well plates for 24 h, after which the culture media was removed and compound-treated virus was added. The virus used was obtained by transient transfection of pNL4-3 into HeLa cells yielding the replication competent NL4-3 virus. Virus containing supernatants were treated for 2 h at 37° C. after which residual compound was removed by centrifugation (18,000×g, 1 h, 4° C.). Virus pellets were resuspended and placed on the MAGI-CCR-5 monolayers and cultured for 48 h. Monolayers were fixed and stained with X-gal solution and blue cells counted.
NCp7 cross-linking is associated with viral inactivation. Whether the ability to crosslink the nucleocapsid protein, as determined by Western blotting, correlated with the ability to inactivate the viruses was tested in a virucidal assay. Virus stocks of HIV-1NL4-3 were incubated with various thiolester compounds. The virus was obtained by transient transfection of a replication-competent pNL4-3 plasmid into HeLa cells. Residual thiolester was removed by centrifugation. […]

Row | SMILES | inhibition of fusion to host cells (in words) [1] | cross-linking and processing of viral precursor polyproteins (in words) (Pr55gag precursor) | effect on super shifting of Sp1 bound to its DNA target (Sp1) | potency at inactivating virus vs compounds 44 and 45 (HIV-1NL4-3) | virucidal activity (in words) (HIV-1NL4-3)
1 | CC(=O)NS(=O)(=O)c1ccc(NC(=O)c2ccccc2SC(=O)CCCCBr)cc1 [Compound 44, N-[2-(5-bromovaleroylthio)benzoyl]sulfacetamide] | did not inhibit | induced β-ME reversible alterations in the mobility of zinc finger containing HIV-1 precursor proteins at a intermediate level | failed to alter the pattern of super shifting of Sp1 |  | 
2 | CC(=O)NS(=O)(=O)c1ccc(NC(=O)c2ccccc2SC(=O)CCCC[n+]2ccccc2)cc1 [Compound 45, N-[2-(5-pyridinio-valeroylthio)benzoyl]sulfacetamide bromide] | did not inhibit | induced cross-linking of viral precursor polyproteins and prevented processing of those precursors | failed to alter the pattern of super shifting of Sp1 |  | 
3 | O=C(CCCC[n+]1ccccc1)Sc1ccccc1C(=O)Nc1ccc(S(=O)(=O)c2ccc([N+](=O)[O-])cc2)cc1 [Compound 47] | did not inhibit | induced cross-linking of viral precursor polyproteins and prevented processing of those precursors | failed to alter the pattern of super shifting of Sp1 | approximately 6 fold | 
4 | O=C(O)CCCC[n+]1ccccc1.[Br-] [Compound 53, 5-pyridiniovaleric acid] |  |  |  |  | Neither intravirion cross-linkage of NCp7 nor virucidal activity were detected
